Each structure is given as a SMILES string. Where two headings read alike, the source gives them in different places.

Drawing on US8188273B2, “Insecticidal (1,3,5)-triazinyl phenyl hydrazones” (Dow AgroSciences, LLC., priority 2007, dated 2012), this text covers pest or weed control for 39 compounds.

Test [1] deals with beet armyworm (Spodoptera exigua). Kind of test: Insecticidal test on treated lepidopteran diet, beet armyworm. Format: in vivo. Conditions: 120 h, read-out: AVG LAPHEG 50 (percent control, beet army worm). As for the experimental part:
(§1) The compounds identified in Table 1 were prepared according to the previous methods and were tested against beet armyworm and corn earworm as follows:
(§2) Insecticidal Test for Corn Earworm (Helicoverpa zea) and Beet Armyworm (Spodoptera exigua).
(§3) To prepare test solution, the test compound was formulated at 2000 ppm solution as 4 mg/2 mL of 9 acetone:1 tap water. 50 μL of the 2000 ppm (equivalent to 50 μg/cm^2 dose on diet surface area) test solution was pipetted upon the surface of 1 mL of lepidopteran diet (Southland Multi-Species Lepidopteran Diet) contained in each of eight wells per insect species (one well=1 replication). A second-instar corn earworm and beet armyworm was placed upon the treated diet in each well once the solvent had air-dried. Trays containing the treated diet and larvae were covered and then held in a growth chamber at 25° C., 50-55% RH, and 16 hr light:8 hr dark for 5 days. Observation were conducted 5 days after treatment and infestation. The number of dead insects of 8 per species per treatment was then determined and the results are given in Table 1 as a percent control at a dose of […].
(§4) Keys to the table: Mass spectral data were obtained using liquid chromatography mass spectroscopy (LC-MS). The masses are detected using electrospray ionization (ESI) and reported as Mol Ion (M+H, M−H); AVG LAPHEG 50 refers to activity against beet army worm (Spodoptera exigua) as defined above; AVG HELIZE 50 refers to activity against corn ear worm (Helicoverpa zea) as described above.

Test [2] relates to corn earworm (Helicoverpa zea). Kind of test: Insecticidal test on treated lepidopteran diet, corn earworm. It is filed as in vivo. Conditions: 120 h, read-out: AVG HELIZE 50 (percent control, corn ear worm). As for the experimental part: as §1, §2, §3, §4
The mark [3] stands for this setting: second-instar larvae on treated diet, 8 wells, dose of 50 mg/cm^2 [sic] (2000 ppm, 50 μL), dead insects counted 5 days after treatment.

As to `FCCOc1ccc(/C=N/Nc2nc(NCc3ccc(Cl)nc3)nc(Nc3ccc(F)c(C(F)(F)F)c3)n2)cc1` [Compound 95], the pest or weed control at 2000 µg/mL stood at 75% in test [1] and 38% in test [2].

As to `FC(F)C(F)(F)Oc1cccc(Nc2nc(NCc3ccc(Cl)nc3)nc(N/N=C/c3ccc(Cl)cc3)n2)c1` [Compound 86], the pest or weed control at 2000 µg/mL in test [1] (setting [3]) and in test [2] (setting [3]) was 100% in each case.

On to `Fc1ccccc1/C=N/Nc1nc(NCc2ccc(Cl)nc2)nc(Nc2ccc(F)c(C(F)(F)F)c2)n1` [Compound 69], for which the pest or weed control at 2000 µg/mL in test [1] (setting [3]) and in test [2] (setting [3]) was 100% in each case.

Take `FC(F)(F)c1cccc(/C=N/Nc2ncnc(Nc3cccc(C(F)(F)F)c3)n2)c1` [Compound 103]: the pest or weed control at 2000 µg/mL amounted to 38% in test [1] (setting [3]) and 100% in test [2] (setting [3]).

With `Fc1ccc(Nc2nc(NCc3ccc(Cl)nc3)nc(N/N=C/c3ccc(OC(F)(F)C(F)F)cc3)n2)cc1C(F)(F)F` [Compound 63], the pest or weed control at 2000 µg/mL in test [1] (setting [3]) and in test [2] (setting [3]) was 100% each time.

On to `Fc1ccc(Nc2nc(N/N=C/c3ccc(OC(F)(F)C(F)F)cc3)nc(N3CCOCC3)n2)cc1C(F)(F)F` [Compound 52], for which the pest or weed control at 2000 µg/mL in test [1] (setting [3]) and in test [2] (setting [3]) was 100% in each case.

`FC(F)C(F)(F)Oc1cccc(/C=N/Nc2nc(Nc3cccc(OC(F)(F)F)c3)nc(N3CCOCC3)n2)c1` [Compound 83]: the pest or weed control at 2000 µg/mL in test [1] (setting [3]) and in test [2] (setting [3]) was 100% in each case.

As for `FC(F)(F)COc1nc(N/N=C/c2cccc(Cl)c2)nc(Nc2ccc(OC(F)(F)F)cc2)n1` [Compound 27], the pest or weed control at 2000 µg/mL in test [1] (setting [3]) and in test [2] (setting [3]) was 100% in each case.

With `CCOCCN(CCOCC)c1nc(N/N=C/c2ccc(OC(F)(F)F)cc2)nc(Nc2ccc(F)c(C(F)(F)F)c2)n1` [Compound 48], the pest or weed control at 2000 µg/mL in test [1] (setting [3]) was 13%; in test [2] (setting [3]), 0%.

On to `FC(F)C(F)(F)Oc1ccc(/C=N/Nc2ncnc(Nc3cccc(C(F)(F)F)c3)n2)cc1` [Compound 100], for which the pest or weed control at 2000 µg/mL in test [1] (setting [3]) and in test [2] (setting [3]) was 100% each time.

As to `CC1CN(c2nc(N/N=C/c3ccc(OC(F)(F)C(F)F)cc3)nc(Nc3ccc(F)c(C(F)(F)F)c3)n2)CC(C)O1` (stereo not drawn) [Compound 49], the pest or weed control at 2000 µg/mL in test [1] (setting [3]) and in test [2] (setting [3]) was 100% in each case.

Turning to `FC(F)C(F)(F)Oc1ccc(Nc2nc(N/N=C/c3ccc(Cl)c(Cl)c3)nc(N3CCOCC3)n2)cc1` [Compound 89], the pest or weed control at 2000 µg/mL in test [1] (setting [3]) and in test [2] (setting [3]) was 100% throughout.

As to `COCCN(C)c1nc(N/N=C/c2ccc(OC(F)(F)F)cc2)nc(Nc2ccc(OC(F)(F)F)cc2)n1` [Compound 22], the pest or weed control at 2000 µg/mL in test [1] (setting [3]) stood at 50%; in test [2] (setting [3]) it was 13%.

In the case of `Fc1ccc(Nc2nc(NCc3ccncc3)nc(N/N=C/c3ccc(OC(F)(F)F)cc3)n2)cc1C(F)(F)F` [Compound 64], the pest or weed control at 2000 µg/mL in test [1] (setting [3]) and in test [2] (setting [3]) was 100% throughout.

For the compound `Fc1ccc(Nc2nc(NCc3ccc(Cl)nc3)nc(N/N=C/c3cccc(OC(F)(F)C(F)F)c3)n2)cc1C(F)(F)F` [Compound 51], the pest or weed control at 2000 µg/mL in test [1] (setting [3]) and in test [2] (setting [3]) was 100% each time.

On to `Fc1cccc(/C=N/Nc2nc(NCc3ccc(Cl)nc3)nc(Nc3ccc(F)c(C(F)(F)F)c3)n2)c1` [Compound 73], for which the pest or weed control at 2000 µg/mL in test [1] (setting [3]) and in test [2] (setting [3]) was 100% in each case.

With `FC(F)(F)COc1nc(N/N=C/c2ccccc2OC(F)(F)F)nc(Nc2ccc(OC(F)(F)F)cc2)n1` [Compound 36], the pest or weed control at 2000 µg/mL in test [1] (setting [3]) and in test [2] (setting [3]) was 100% each time.

Consider `Fc1cc(/C=N/Nc2nc(Nc3ccc(OC(F)(F)F)cc3)nc(N3CCOCC3)n2)ccc1Cl` [Compound 42], for which the pest or weed control at 2000 µg/mL in test [1] (setting [3]) was found to be 88%; in test [2] (setting [3]) it was 100%.

As for `FC(F)(F)COc1nc(N/N=C/c2ccccc2Br)nc(Nc2ccc(OC(F)(F)F)cc2)n1` [Compound 34], the pest or weed control at 2000 µg/mL in test [1] (setting [3]) and in test [2] (setting [3]) was 100% each time.

`FC(F)(F)COc1nc(N/N=C/c2ccc(Cl)c(Cl)c2)nc(Nc2ccc(OC(F)(F)F)cc2)n1` [Compound 30]: the pest or weed control at 2000 µg/mL in test [1] (setting [3]) and in test [2] (setting [3]) was 100% in each case.

For the compound `COc1cccc(/C=N/Nc2nc(NCc3ccc(Cl)nc3)nc(Nc3ccc(F)c(C(F)(F)F)c3)n2)c1` [Compound 66], the pest or weed control at 2000 µg/mL in test [1] (setting [3]) and in test [2] (setting [3]) was 100% each time.

`CCOC(=O)CN(C)c1nc(N/N=C/c2ccc(OC(F)(F)F)cc2)nc(Nc2ccc(OC(F)(F)F)cc2)n1` [Compound 23]: the results for the pest or weed control at 2000 µg/mL in test [1] (setting [3]) and in test [2] (setting [3]) were 25% and 0%, respectively.

As for `FC(F)C(F)(F)Oc1cccc(Nc2nc(NCc3ccc(Cl)nc3)nc(N/N=C/c3ccc(C(F)(F)F)cc3)n2)c1` [Compound 85], the pest or weed control at 2000 µg/mL in test [1] (setting [3]) and in test [2] (setting [3]) was 100% each time.

As for `FC(F)C(F)(F)Oc1ccc(Nc2ncnc(N/N=C/c3cccc(C(F)(F)F)c3)n2)cc1` [Compound 104], the pest or weed control at 2000 µg/mL worked out at 50% in test [1] (setting [3]) and 88% in test [2] (setting [3]).

Take `FC(F)C(F)(F)Oc1cccc(/C=N/Nc2nc(Nc3ccc(OC(F)(F)F)cc3)nc(OCC(F)(F)F)n2)c1` [Compound 28]: the pest or weed control at 2000 µg/mL in test [1] (setting [3]) and in test [2] (setting [3]) was 100% each time.

In the case of `FC(F)(F)Oc1ccc(Nc2nc(N/N=C/c3ccccc3Br)nc(N3CCOCC3)n2)cc1` [Compound 43], the pest or weed control at 2000 µg/mL in test [1] (setting [3]) stood at 13%; in test [2] (setting [3]) it was 0%.

Consider `Cc1cnc(CNc2nc(N/N=C/c3cccc(OC(F)(F)C(F)F)c3)nc(Nc3ccc(F)c(C(F)(F)F)c3)n2)cn1` [Compound 56], for which the pest or weed control at 2000 µg/mL was determined as 100% in test [1] (setting [3]) and 63% in test [2] (setting [3]).

Regarding `Fc1ccc(Nc2nc(NCc3ccc(C(F)(F)F)nc3)nc(N/N=C/c3ccc(OC(F)(F)F)cc3)n2)cc1C(F)(F)F` [Compound 77], the pest or weed control at 2000 µg/mL in test [1] (setting [3]) and in test [2] (setting [3]) was 100% each time.

Regarding `CCOC(=O)CNc1nc(N/N=C/c2ccc(OC(F)(F)F)cc2)nc(Nc2ccc(OC(F)(F)F)cc2)n1` [Compound 26], the pest or weed control at 2000 µg/mL stood at 50% in test [1] (setting [3]) and 100% in test [2] (setting [3]).

As to `CCOc1nc(N/N=C/c2ccc(F)cc2)nc(Nc2ccc(OC(F)(F)F)cc2)n1` [Compound 11], the values for the pest or weed control at 2000 µg/mL in test [1] (setting [3]) and in test [2] (setting [3]) were 13% and 100%, respectively.

For the compound `CCNc1nc(N/N=C/c2ccc(F)cc2)nc(Nc2ccc(OC(F)(F)F)cc2)n1` [Compound 18], the results for the pest or weed control at 2000 µg/mL in test [1] (setting [3]) and in test [2] (setting [3]) were 75% and 38%, respectively.

On to `Fc1cc(/C=N/Nc2nc(Nc3ccc(OC(F)(F)F)cc3)nc(OCC(F)(F)F)n2)ccc1Cl` [Compound 33], for which the pest or weed control at 2000 µg/mL in test [1] (setting [3]) and in test [2] (setting [3]) was 100% each time.

For `FC(F)(F)Oc1ccc(Nc2nc(N/N=C/c3ccccc3C(F)(F)F)nc(N3CCOCC3)n2)cc1` [Compound 41], the pest or weed control at 2000 µg/mL was found to be 13% in test [1] (setting [3]) and 0% in test [2] (setting [3]).

With `FC(F)C(F)(F)Oc1cccc(/C=N/Nc2nc(Nc3ccc(OC(F)(F)F)cc3)nc(N3CCOCC3)n2)c1` [Compound 61], the pest or weed control at 2000 µg/mL in test [1] (setting [3]) and in test [2] (setting [3]) was 100% in each case.

In the case of `FC(F)C(F)(F)Oc1ccc(/C=N/Nc2nc(Nc3ccc(OC(F)(F)F)cc3)nc(N3CCOCC3)n2)cc1` [Compound 1, (4-Morpholin-4-yl-6-{N′-[4-(1,1,2,2-tetrafluoroethoxy)benzylidene]hydrazino}-1,3,5-triazin-2-yl)-(4-trifluoromethoxyphenyl)amine], the pest or weed control at 2000 µg/mL in test [1] (setting [3]) and in test [2] (setting [3]) was 100% each time.

Consider `FC(F)C(F)(F)Oc1ccc(Nc2nc(NCc3ccc(Cl)nc3)nc(N/N=C/c3ccc(Cl)cc3)n2)cc1` [Compound 87], for which the pest or weed control at 2000 µg/mL in test [1] (setting [3]) and in test [2] (setting [3]) was 100% each time.

For `COCCNc1nc(N/N=C/c2ccc(F)cc2)nc(Nc2ccc(OC(F)(F)F)cc2)n1` [Compound 17], the pest or weed control at 2000 µg/mL was 50% in test [1] (setting [3]) and 63% in test [2] (setting [3]).

In the case of `C/C(=N\Nc1nc(Nc2ccc(OC(F)(F)F)cc2)nc(N2CCOCC2)n1)c1cccc(C#N)c1` [Compound 5], the pest or weed control at 2000 µg/mL in test [1] (setting [3]) and in test [2] (setting [3]) was 100% throughout.

In the case of `FC(F)(F)Oc1ccc(Nc2nc(N/N=C/c3c(Cl)cccc3Cl)nc(N3CCOCC3)n2)cc1` [Compound 44], the pest or weed control at 2000 µg/mL in test [1] (setting [3]) is 13%; in test [2] (setting [3]) it was 0%.
